Consider three molecules from ChEMBL document CHEMBL1143650, “Synthesis of desthio prenylcysteine analogs: sulfur is important for biological activity” (Bioorg Med Chem Lett, 2005).

Structures are written as SMILES.

The target in assay [1] is T1, Protein-S-isoprenylcysteine O-methyltransferase (Saccharomyces cerevisiae S288c, UniProt P32584).
T1 sequence (P32584 whole entry): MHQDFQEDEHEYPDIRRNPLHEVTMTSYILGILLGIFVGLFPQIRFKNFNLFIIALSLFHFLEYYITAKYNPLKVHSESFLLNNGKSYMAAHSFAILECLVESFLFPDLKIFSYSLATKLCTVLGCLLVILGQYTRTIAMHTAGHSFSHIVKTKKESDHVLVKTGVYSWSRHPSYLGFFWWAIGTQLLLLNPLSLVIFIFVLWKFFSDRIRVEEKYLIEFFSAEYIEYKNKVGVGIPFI
Nature of the assay: Inhibitory concentration against isoprenyl-cysteine carboxyl methyltransferase.

The target of assay [2] is T1, Protein-S-isoprenylcysteine O-methyltransferase. Kind of assay: Inhibitory concentration against isoprenyl-cysteine carboxyl methyltransferase by Casey method; Range 7 - 14 uM.

By Ki is commonly meant a measure of affinity in units of concentration, obtained from inhibition or displacement. Molecule `CC(C)=CCC/C(C)=C/CC/C(C)=C/CSCC(=O)O` [FARNESYLTHIOACETIC ACID] registered a Ki in assay [1] of 4.6 µM.
As a reminder, the IC50 is the concentration that inhibits the measured activity by half. Read a high IC50 as lower potency. In assay [1], `CC(=O)N[C@@H](CSC/C=C(\CC=C(C)C)CC/C=C(\C)CCC=C(C)C)C(=O)O` displayed an IC50 of 44 µM and a Ki of 17.1 µM. Moreover, half-maximal inhibition in assay [2] (IC50) required 14 µM.
In assay [1], `CC(=O)NC(C[S+]([O-])C/C=C(\C)CC/C=C(\C)CC/C=C(\C)CCC=C(C)C)C(=O)O` (stereo not given) had a Ki of 13.2 µM.
